Test [1] deals with Matrix protein 2 (Influenza A virus), P06821 [withheld]. Briefly: Inhibition of Influenza A Virus M2 proton channel S31N mutant expressed in Xenopus laevis oocytes at 100 uM after 2 mins by two-electrode patch clamp assay. It counts as cell-based. The settings on record: Oocyte. On the technique in general: Patch clamp records ionic current or voltage across a cell membrane.
Test [2] relates to Matrix protein 2 (Influenza A virus), P06821 [V27A]. The test can be described thus: Inhibition of Influenza A Virus M2 proton channel V27A mutant expressed in Xenopus laevis oocytes at 100 uM after 2 mins by two-electrode patch clamp assay. It is filed as cell-based. Conditions: Oocyte.

One may read the inhibition as the drop in the measured response relative to a control, in per cent. Low readings indicate a weak effect, high ones a strong effect.

On to `NC12CC3CCC(CC(C3)C1)C2`, for which the results for the inhibition in test [1] and in test [2] were 33% and under 15%, respectively.
As for `C1CCC2(CC1)CCNCC2`, the figures for the inhibition in test [1] and in test [2] were 33% and under 15%, respectively.
The matching figures for `CC1(C)C(N)C1(C)C`: 33% and under 15%.
With `C1CC2CC1C1CNCC21` (stereo not given), the inhibition in test [1] was 33%; in test [2], under 15%.
In the case of `NC1CCC2(CCCCC2)CC1`, the inhibition was 33% in test [1] and under 15% in test [2].
On to `N=C(NO)C12CC3CC(CC(C3)C1)C2`, for which the inhibition was 33% in test [1] and under 15% in test [2].
For `C1CC2CC1C1CNC21` (stereo not given), in that order: 33% and under 15%.
The matching figures for `OC12CC3CC(CC(C3)C1)C2`: 33% and under 15%.
Regarding `OC1CCC(C2CC3CCC2C3)CC1O` (stereo not given), the inhibition was 33% in test [1] and under 15% in test [2].
For the compound `NC(=O)C12CC3CC(CC(C3)C1)C2`, the figures for the inhibition in test [1] and in test [2] were 33% and under 15%, respectively.
The matching figures for `OC1CC2C3CCC(C3)C2C1O` (stereo not given): 33% and under 15%.
The matching figures for `NN1C(=O)CC2(CCCCC2)CC1=O`: 33% and under 15%.
For `C1CC2CCC1CNC2`, in that order: 33% and under 15%.
On to `CC12CC3(O)CC1(C)CC3(O)C2`, for which the figures for the inhibition in test [1] and in test [2] were 33% and under 15%, respectively.
For `CC(C)(C)c1ccc(CN)cc1`, in that order: 33% and under 15%.
With `NOC12CC3CC(CC(C3)C1)C2`, the inhibition in test [1] is 33%; in test [2], under 15%.
For `NN1CCC2(CCCCC2)CC1`, in that order: 33% and under 15%.
With `NC1Cc2ccccc2C1`, the inhibition in test [1] was 33%; in test [2], under 15%.
`NC1C2CC3CC(C2)CC1C3` (stereo not given): the inhibition in test [1] was 33%; in test [2] it was under 15%.
For `NNC1CCC2(CCCCC2)CC1`, the inhibition was 33% in test [1] and under 15% in test [2].
Consider `OC1C2C3CC4C1C1C2CC3C41` (stereo not given), for which the inhibition in test [1] is 33%; in test [2] it was under 15%.
For `CC(C)(C)CC(C)(C)N`, the inhibition was 33% in test [1] and under 15% in test [2].
Consider `NC1C2C3CC4C1C1C2CC3C41` (stereo not given), for which the inhibition in test [1] was 33%; in test [2], under 15%.
The matching figures for `NC1C2C3CC4C2C(O)C2C1C3C42` (stereo not given): 33% and under 15%.
For `N=C(N)NCC12CC3CCC(CC(C3)C1)C2`, in that order: 33% and under 15%.
For `NC(CO)C12CC3CC(CC(C3)C1)C2` (stereo not given), in that order: 15% and 4%.
As for `O=C1CC2(CCCCC2)CC(=O)N1`, the inhibition in test [1] is 33%; in test [2], under 15%.
Take `O=S(=O)(O)C12CC3CC(CC(C3)C1)C2`: the inhibition in test [1] was 33%; in test [2], under 15%.
The matching figures for `NC12CCC3CC(CC(C3)C1)C2`: 33% and under 15%.
For `NC12CC3CC(C1)CC(CO)(C3)O2`, in that order: 33% and under 15%.
The matching figures for `NC12CC3CC(C1)CC(O)(C3)C2`: 33% and under 15%.
Take `N=C(N)NC12CC3CC(CC(C3)C1)C2`: the inhibition in test [1] is 33%; in test [2], under 15%.
For the compound `OC1C2C3CC4C2C(O)C2C1C3C42` (stereo not given), the inhibition in test [1] is 33%; in test [2], under 15%.
For `O=C1C2CC3CC(C2)CC1C3`, in that order: 33% and under 15%.
As to `C1NC2CC3CC1CC(C3)C2`, the inhibition was 33% in test [1] and under 15% in test [2].
Regarding `N=C(N)C12CC3CC(CC(C3)C1)C2`, the results for the inhibition in test [1] and in test [2] were 33% and under 15%, respectively.
For `NC12CC3CC(CC(C3)C1)C2`, in that order: 35% and 0%.
For `N=C(N)NC(=N)NC12CC3CC(CC(C3)C1)C2`, the inhibition in test [1] was 33%; in test [2], under 15%.
`CC1(O)C2CC3CC(C2)CC1C3` (stereo not given): the inhibition in test [1] was 33%; in test [2], under 15%.
For `NC1CC2CC1C1CCCC21` (stereo not given), in that order: 33% and under 15%.

For the origin of these results see ChEMBL document CHEMBL2040799, “Exploring the Requirements for the Hydrophobic Scaffold and Polar Amine in inhibitors of M2 from Influenza A Virus” (ACS Med Chem Lett, 2011).
